From PubChem BioAssay (NCI)
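Five compound concentrations were applied to cells in 96-well plates for 48 hours; endpoints were derived by simple linear interpolation of the resulting dose-response curve. TGI is the concentration that stops growth completely.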

Legend:
Test in all cases: growth of human tumour cells (NCI), 48 h
[1] = test system: KM20L2 colon
[2] = test system: LXFL 529 NSCLC
[3] = test system: SNB-78 CNS
[4] = test system: XF 498 CNS
[5] = test system: HOP-18 NSCLC

Measured: TGI

CN=C(NC#N)NCc1ccccc1
> 100 µM: [1] | [2] | [3] | [4]

CSc1nnc2n1-c1ccccc1SCC2
> 100 µM: [5] | [1] | [2] | [3] | [4]
